Laboratory results: patent publication US20240288446A1, “METHOD FOR DIAGNOSING FIBRINOLYTIC INSUFFICIENCY RELATED TO NEUTROPHIL EXTRACELLULAR TRAPS” (Hôpitaux Universitaires de Strasbourg, priority 2019, published 2024)
Entries after “also recorded” stand apart in the source; their conditions may differ.

Legend:
Assay type in all cases: biochemical
[1] = target: T1, HNE-DNA complexes of NETs (Homo sapiens, UniProt P08246); assay: Plasminogen fragmentation by NETs-bound elastase (SDS-PAGE, Western blot); conditions: plasminogen 1 μM; NETs pre-incubated with inhibitor
T1 construct: endogenous in cells
T1 sequence (P08246 30-247 limits assumed): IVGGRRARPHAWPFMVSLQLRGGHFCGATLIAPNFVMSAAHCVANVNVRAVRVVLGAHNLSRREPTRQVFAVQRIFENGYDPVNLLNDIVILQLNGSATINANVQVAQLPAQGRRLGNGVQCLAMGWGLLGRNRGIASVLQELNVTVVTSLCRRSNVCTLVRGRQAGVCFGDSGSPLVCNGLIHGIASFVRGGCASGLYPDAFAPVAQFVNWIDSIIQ
Method: FIGS. 2A-C represent NETs-associated elastase digests plasminogen into fragments. Samples were analyzed by SDS-PAGE and Western blot using a specific sheep antibody directed against human plasminogen. FIG. 2A-B. Plasminogen fragmentation by NETs HNE•DNA complexes after 30 to 240 min (A) and 2 to 10 hours (B) of incubation. C. Western blot of purified plasminogen (Pg), plasmin (Pn) (left panel) and HNE-DNA-derived plasminogen fragments (middle panel). Plasminogen fragments produced by PMA stimulated neutrophils (middle panel) were not observed (right panel) in the presence of the elastase-specific inhibitor (EI) N-Methoxysuccinyl-Ala-Ala-Pro-Val-chloromethyl ketone.
Fibrin-NETs matrices were achieved by activation with PMA of neutrophils seeded onto fibrin surfaces prepared as described above. The neutrophils were seeded onto the fibrin matrix at 200 000 cells per well and were stimulated with PMA after 1 h plating as indicated above. […] Initial velocities of the reaction were calculated using an ad hoc computer program. • 2. […] HNE activity in samples collected in HBSS was measured with the chromogenic substrate MeO-Suc-AAPV-pNA (100 μl per well, 1.5 mM final concentration in HBSS) as indicated above. […] Signal was detected using the ECL kit from Amersham (Arlington Heights, U.K.) and the Curix-60-AGFA for development. […]

[2] = target: T1, HNE-DNA complexes of NETs; assay: Activity of DNA-bound elastase on NETs, chromogenic substrate MeO-Suc-AAPV-pNA; conditions: NETs from PMA-stimulated neutrophils, MeO-Suc-AAPV-CMK 100 μM, α1-PI 10 μM, aprotinin 10 μM (FIG. 1B legend)
Method: FIGS. 1A-C represent Neutrophil Extracellular Traps (NETs) generated from neutrophils seeded onto a fibrin matrix: DNA and HNE activity of NETs are shown. Neutrophils isolated from human blood and seeded on wells of a 96-wells microtiter plate containing or not a fibrin matrix, were activated by 50 nM PMA in HBSS. After 4 hours incubation at 37° C. in a humidified 5% CO2 incubator, the plate was centrifuged at 3000 g for 5 min, the supernatant was collected and cells and NETs in the well stained with a 10 μg/ml solution of Hoechst 33342 a minor-groove DNA binder. Elastase activity bound to NETs was detected with the chromogenic substrate N-methoxysuccinyl-Ala-Ala-Pro-Val-p-nitroanilide. FIG. 1A represents fluorescence microscopy images (X20) of nuclei and extracellular DNA fibers stained with Hoechst. Scale bars: 20 μm. […] NETs: neutrophil extracellular traps generated in the absence of fibrin. […] C. […] Purified HNE was incubated (15 min) at different concentrations in buffer or plasma before activity measurements with 1.5 mM of the chromogenic substrate N-methoxysuccinyl-Ala-Ala-Pro-Val-p-nitroanilide.
NETs were identified by (1) DNA staining with a 10 μg/ml solution of Hoechst 33342 and (2) measuring the activity of DNA-bound elastase.
To detect elastase bound to NETs, the substrate MeO-Suc-AAPV-pNA (100 μl per well, 1.5 mM final concentration in HBSS) was incubated with NETs after two gentle washes with HBSS. DNA-bound HNE activity was detected in a multi-well plate counter at 37° C. by measuring the release of p-nitroaniline (pNA) at A405 nm.

[3] = target: T2, HNE-DNA complexes of fibrin-NETs lattice (Homo sapiens, UniProt P08246); assay: Plasminogen activation by fibrin-bound tPA on fibrin-NETs matrices (plasmin formation)
T2 construct: endogenous in cells
T2 sequence (P08246 30-247 limits assumed): T1 sequence (P08246 30-247 limits assumed)
Method: FIGS. 3A-D represent the decrease in tPA-mediated plasmin formation by NETs formed onto fibrin. Neutrophils isolated from human blood were seeded onto fibrin in a 96-wells microtitre plate and activated by 50 nM PMA in HBSS. After binding of tPA to fibrin, plasminogen at varying concentrations was added to the interlaced NETs-fibrin structure. FIG. 3A-B. Plasmin formation from plasminogen (Pg) at 50 nM (A) and 500 nM (B) was monitored by measuring the released of pNA the plasmin-selective chromogenic substrate at 0.75 mM. Plasmin formation on fibrin. ● Plasmin formation on fibrin-NETs. ▪ Plasmin formation on fibrin-NETs treated with the elastase inhibitor MeO-Suc-AAPV-CMK. FIG. 3 C. After plasminogen activation the wells were carefully washed and the amount of fibrin-bound plasmin detected by adding 0.75 mM of the plasmin-selective chromogenic substrate. Grey bars: plasmin bound to the fibrin-NETs surface. […]
Fibrin-NETs matrices were achieved by activation with PMA of neutrophils seeded onto fibrin surfaces prepared as described above. […] Initial velocities of the reaction were calculated using an ad hoc computer program. • 2. […] HNE activity in samples collected in HBSS was measured with the chromogenic substrate MeO-Suc-AAPV-pNA (100 μl per well, 1.5 mM final concentration in HBSS) as indicated above. […]

Substance	effect on conversion of plasminogen into fragments by NETs [1]	effect on proteolytic activity of HNE-DNA complexes of NETs [2]	effect on proteolytic activity of HNE-DNA complexes of NETs ([2]; listed as aprotinin)	decrease of plasmin formed and remaining bound to untreated fibrin-NETs lattices compared with lattices in the presence of inhibitor ([3]; FIG. 3C)	plasmin formation / fibrinolytic activity at the fibrin-NET lattice ([3]; fibrin-NET lattice pre-incubated with inhibitor, tPA bound to fibrin)
Aprotinin	unable to modify	without effect	unable to modify	–	–
N-(Methoxysuccinyl)-L-alanyl-L-alanyl-L-prolyl-L-valine chloromethylketone [MeO-Suc-AAPV-CMK]	abolished the conversion of plasminogen into fragments; also recorded: plasminogen fragments were absent	completely blocked; also recorded: completely inhibited	–	around 50%	restored to control values
